In ChEMBL document CHEMBL1201862, “PubChem BioAssay data set” (2004):
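Protocol summary: plate cells (96-well), add compound at 5 concentrations, incubate 48 h, interpolate endpoints linearly. GI50 is the concentration that inhibits growth by half.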 The source made the active and inactive calls. No stated cut-off is given here; in the data, active = GI50 up to about 1.1 µM and inactive = higher.

How the values were obtained:
Assay in all cases: NCI anticancer screen, dose series, 48 h
SK-MEL-2 = system: SK-MEL-2
LOX IMVI = system: LOX IMVI
CCRF-CEM = system: CCRF-CEM
UACC-62 = system: UACC-62
SF-295 = system: SF-295
KM-20L2 = system: KM-20L2
SW-620 = system: SW-620
M14 = system: M14
IGROV-1 = system: IGROV-1
SK-OV-3 = system: SK-OV-3
HT-29 = system: HT-29
HCT-15 = system: HCT-15
NCI-H23 = system: NCI-H23
OVCAR-4 = system: OVCAR-4
OVCAR-8 = system: OVCAR-8
HL-60 = system: HL-60
MCF7 = system: MCF7
DU-145 = system: DU-145
KM12 = system: KM12
M19-MEL = system: M19-MEL

Row | Structure (SMILES) | GI50 (SK-MEL-2) | GI50 (LOX IMVI) | GI50 (CCRF-CEM) | GI50 (UACC-62) | GI50 (SF-295) | GI50 (KM-20L2) | GI50 (SW-620) | GI50 (M14) | GI50 (IGROV-1) | GI50 (SK-OV-3) | GI50 (HT-29) | GI50 (HCT-15) | GI50 (NCI-H23) | GI50 (OVCAR-4) | GI50 (OVCAR-8) | GI50 (HL-60) | GI50 (MCF7) | GI50 (DU-145) | GI50 (KM12) | GI50 (M19-MEL)
1 | CC(=O)Nc1ccc(C(=O)NN2C(=O)C(Cl)C2c2ccccc2O)cc1 (stereo not drawn) | 15.7 µM (inactive) | 13.2 µM (inactive) | 4.9 µM (inactive) | 37.2 µM (inactive) | 29.1 µM (inactive) | > 100 µM (inactive) | > 100 µM (inactive) | 23.8 µM (inactive) | > 100 µM (inactive) | 12.9 µM (inactive) | 69 µM (inactive) | 3.36 µM | 19.7 µM (inactive) | > 100 µM (inactive) | 42.2 µM (inactive) | 84.7 µM (inactive) | – | – | – | –
2 | C=CCOc1cc(NC(=S)c2ccoc2C)ccc1OC | > 100 µM (inactive) | > 100 µM (inactive) | > 100 µM (inactive) | > 100 µM (inactive) | > 100 µM (inactive) | – | > 100 µM (inactive) | > 100 µM (inactive) | > 100 µM (inactive) | > 100 µM (inactive) | > 100 µM (inactive) | > 100 µM | > 100 µM (inactive) | > 100 µM (inactive) | > 100 µM (inactive) | > 100 µM (inactive) | > 100 µM (inactive) | > 100 µM (inactive) | > 100 µM (inactive) | –
3 | CCN1CCC(O)(c2ccc(Cl)c(Cl)c2)C(C(=O)c2ccc(Cl)c(Cl)c2)C1 (stereo not drawn) | 17.3 µM (inactive) | 17.8 µM (inactive) | 17.1 µM (inactive) | 17 µM (inactive) | 17.6 µM (inactive) | 17.9 µM (inactive) | 19.5 µM (inactive) | 16.7 µM (inactive) | 20.6 µM (inactive) | 18.2 µM (inactive) | 18.2 µM (inactive) | 18.8 µM | 19.7 µM (inactive) | 18.3 µM (inactive) | 19.8 µM (inactive) | 15.2 µM (inactive) | – | – | – | –
4 | CCOC(=O)/C(=C/c1cccc(C#N)c1)N(CC)CC | > 100 µM (inactive) | > 100 µM (inactive) | > 100 µM (inactive) | > 100 µM (inactive) | > 100 µM (inactive) | – | > 100 µM (inactive) | > 100 µM (inactive) | > 100 µM (inactive) | > 100 µM (inactive) | > 100 µM (inactive) | > 100 µM | > 100 µM (inactive) | > 100 µM (inactive) | > 100 µM (inactive) | > 100 µM (inactive) | – | – | > 100 µM (inactive) | > 100 µM (inactive)
5 | N=C1NC2(O)C(=O)c3ccccc3C2(O)N1 (stereo not drawn) | > 100 µM (inactive) | > 100 µM (inactive) | > 100 µM (inactive) | > 100 µM (inactive) | > 100 µM (inactive) | > 100 µM (inactive) | > 100 µM (inactive) | > 100 µM (inactive) | > 100 µM (inactive) | > 100 µM (inactive) | > 100 µM (inactive) | > 100 µM | > 100 µM (inactive) | > 100 µM (inactive) | > 100 µM (inactive) | > 100 µM (inactive) | – | – | > 100 µM (inactive) | –
6 | C=CCC(O)c1cc(OC)ccc1OC (stereo not drawn) | > 100 µM (inactive) | > 100 µM (inactive) | > 100 µM (inactive) | > 100 µM (inactive) | > 100 µM (inactive) | – | > 100 µM (inactive) | > 100 µM (inactive) | > 100 µM (inactive) | > 100 µM (inactive) | > 100 µM (inactive) | > 100 µM | – | > 100 µM (inactive) | > 100 µM (inactive) | > 100 µM (inactive) | – | – | > 100 µM (inactive) | > 100 µM (inactive)
7 | COc1cc(C(=O)C/C(CCC(=O)Nc2ccc(Cl)cc2Cl)=N/Nc2nnc(C)n2N)ccc1O | > 100 µM (inactive) | > 100 µM (inactive) | > 100 µM (inactive) | > 100 µM (inactive) | > 100 µM (inactive) | > 100 µM (inactive) | > 100 µM (inactive) | > 100 µM (inactive) | > 100 µM (inactive) | > 100 µM (inactive) | > 100 µM (inactive) | > 100 µM | > 100 µM (inactive) | – | > 100 µM (inactive) | > 100 µM (inactive) | – | – | > 100 µM (inactive) | > 100 µM (inactive)
8 | COc1cc2c([C@@H](OC(=O)c3ccccc3)c3ccc4c(c3)OCO4)nccc2c(OC)c1OC | – | 29.2 µM (inactive) | 28.6 µM (inactive) | 14.7 µM (inactive) | 44.3 µM (inactive) | 42.1 µM (inactive) | > 100 µM (inactive) | 53.6 µM (inactive) | > 100 µM (inactive) | > 100 µM (inactive) | 67.3 µM (inactive) | 37.6 µM | 23.7 µM (inactive) | 18.7 µM (inactive) | 49.5 µM (inactive) | 16.4 µM (inactive) | – | – | – | 42.2 µM (inactive)
